How the values were obtained:
[1] = target: AXL (Homo sapiens (Human), UniProt P30530); test: AXL autophosphorylation ELISA in A-172 cells; assay type: cell-based; conditions: cellular, Gas6 stimulated
Outline: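 Serum-starved (24 h) A-172 glioblastoma cells pretreated 1 h with compounds (8-point curve, 0.3% DMSO), then stimulated 15 min with 1 μg/mL Gas6. Lysate phospho-AXL measured by sandwich ELISA against a phospho-AXL standard; IC50 from 4-parameter logistic fit between DMSO and reference-inhibitor controls.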

[2] = target: Mer (Homo sapiens (Human), UniProt Q12866); test: Mer autophosphorylation ELISA in transient transfected 293A cells; assay type: cell-based; conditions: cellular, MERTK transfected 293A cells
Method: 293A cells (Thermo Fisher #R70507) were seeded at 1.5×10^6 cells/well onto 100 mm dish (Greiner #664169), in DMEM (Thermo Fisher #11995-040) containing 10% FBS (Thermo Fisher #26140-079), 1% MEM NEAA (Thermo Fisher #11140-050), 1% GlutaMax (Thermo Fisher #35050-061), and 1% Penicillin Streptomycin (Thermo Fisher #15140-122). 293A cells were incubated at 37° C., 5% CO2 for 24 h and then transfected with 6 μg MERTK DNA (Genecopoeia #EX-Z8208-M02) using TransIT LT1 transfection reagent (Mirus-Bio #MIR2305). After 24 h incubation, the transfected 293A cells were seeded at 1×10^5 cells/well onto 96-well plates (Corning #3904) in DMEM growth medium overnight. Test compounds were serially diluted to produce an 8-point dose curve in fresh serum-free medium to a final concentration of 0.3% DMSO (vehicle) and added to the cells and incubated for 1 h. Cells were then immediately lysed with 150 μL of cold 1× lysis buffer [20 mM Tris, 137 mM sodium chloride, 2 mM EDTA, 10% glycerol, 1% NP-40 alternative, 1 mM activated sodium orthovanadate, 1 mM PefaBloc SC (Sigma-Aldrich #11429868001), protease/phosphatase inhibitor tablet (Thermo Fisher #A32959)]. Lysates were clarified by centrifugation and 50 μL/well added into the human phospho-Mer DuoSet IC ELISA (R&D Systems #DYC2579-2). Assay was performed according to manufacturer's instructions and sample phospho-Mer concentrations were extrapolated using human phospho-Mer control (R&D Systems #841793) as a standard. Positive control wells (100% activity) contained DMSO-treated cell lysates. Negative control wells (0% activity) contained reference inhibitor-treated cell lysates. IC50 values were calculated by nonlinear regression analysis using a 4-parameter logistic curve fit in ActivityBase XE (IDBS).

[3] = target: Met (Homo sapiens (Human), UniProt P08581); test: Met autophosphorylation ELISA in PC-3 cells; assay type: cell-based; conditions: cellular, HGF stimulated, read-out: c-Met IC50
Sequence of Met (P08581 25-1390): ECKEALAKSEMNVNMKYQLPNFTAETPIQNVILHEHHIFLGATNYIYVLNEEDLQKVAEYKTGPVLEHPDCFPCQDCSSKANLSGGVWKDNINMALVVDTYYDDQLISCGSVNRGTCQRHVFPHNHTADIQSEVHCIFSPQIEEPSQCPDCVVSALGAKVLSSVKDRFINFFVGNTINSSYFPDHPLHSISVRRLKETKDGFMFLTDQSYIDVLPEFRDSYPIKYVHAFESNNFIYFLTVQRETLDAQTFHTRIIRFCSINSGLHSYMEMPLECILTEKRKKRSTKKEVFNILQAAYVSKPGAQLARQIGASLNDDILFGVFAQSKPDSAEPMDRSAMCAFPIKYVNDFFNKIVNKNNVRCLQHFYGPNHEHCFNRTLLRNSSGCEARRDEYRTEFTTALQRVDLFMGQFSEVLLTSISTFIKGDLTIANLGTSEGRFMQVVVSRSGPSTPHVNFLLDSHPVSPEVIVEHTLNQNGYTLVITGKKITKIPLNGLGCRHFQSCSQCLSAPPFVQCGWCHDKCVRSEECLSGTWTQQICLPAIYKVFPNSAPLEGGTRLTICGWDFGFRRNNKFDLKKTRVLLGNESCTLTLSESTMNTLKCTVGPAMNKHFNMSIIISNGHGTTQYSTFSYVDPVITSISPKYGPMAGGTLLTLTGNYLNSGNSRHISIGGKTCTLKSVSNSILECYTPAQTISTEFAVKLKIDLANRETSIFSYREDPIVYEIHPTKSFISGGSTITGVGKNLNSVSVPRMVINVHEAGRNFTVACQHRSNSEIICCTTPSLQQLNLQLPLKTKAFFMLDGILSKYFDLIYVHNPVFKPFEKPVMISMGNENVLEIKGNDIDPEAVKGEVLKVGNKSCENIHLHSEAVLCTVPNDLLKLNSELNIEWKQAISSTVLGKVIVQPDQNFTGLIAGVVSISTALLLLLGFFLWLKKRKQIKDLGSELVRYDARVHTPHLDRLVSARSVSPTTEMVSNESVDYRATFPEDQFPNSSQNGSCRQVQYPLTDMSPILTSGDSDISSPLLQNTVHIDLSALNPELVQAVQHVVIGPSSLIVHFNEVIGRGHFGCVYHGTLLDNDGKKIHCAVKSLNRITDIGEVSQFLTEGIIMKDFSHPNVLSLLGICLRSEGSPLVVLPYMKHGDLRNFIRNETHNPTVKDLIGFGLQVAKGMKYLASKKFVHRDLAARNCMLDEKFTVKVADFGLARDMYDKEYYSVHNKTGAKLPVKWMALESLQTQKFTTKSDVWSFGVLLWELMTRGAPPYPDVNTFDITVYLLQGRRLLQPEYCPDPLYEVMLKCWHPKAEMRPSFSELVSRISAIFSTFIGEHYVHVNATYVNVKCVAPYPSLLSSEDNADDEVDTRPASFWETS
Outline: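 PC-3 cells serum-starved 3 h, treated 1 h with 8-point compound series (0.3% DMSO), then stimulated with 100 ng/mL human HGF for 10 min. Lysate phospho-Met (panTyr) measured by sandwich ELISA; IC50 from 4-parameter logistic fit against DMSO and reference-inhibitor controls.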

[4] = target: KDR (Homo sapiens (Human), UniProt P35968); test: KDR autophosphorylation ELISA in HUVEC cells; assay type: cell-based; conditions: cellular, VEGF165 stimulated
Sequence of KDR (P35968 20-1356): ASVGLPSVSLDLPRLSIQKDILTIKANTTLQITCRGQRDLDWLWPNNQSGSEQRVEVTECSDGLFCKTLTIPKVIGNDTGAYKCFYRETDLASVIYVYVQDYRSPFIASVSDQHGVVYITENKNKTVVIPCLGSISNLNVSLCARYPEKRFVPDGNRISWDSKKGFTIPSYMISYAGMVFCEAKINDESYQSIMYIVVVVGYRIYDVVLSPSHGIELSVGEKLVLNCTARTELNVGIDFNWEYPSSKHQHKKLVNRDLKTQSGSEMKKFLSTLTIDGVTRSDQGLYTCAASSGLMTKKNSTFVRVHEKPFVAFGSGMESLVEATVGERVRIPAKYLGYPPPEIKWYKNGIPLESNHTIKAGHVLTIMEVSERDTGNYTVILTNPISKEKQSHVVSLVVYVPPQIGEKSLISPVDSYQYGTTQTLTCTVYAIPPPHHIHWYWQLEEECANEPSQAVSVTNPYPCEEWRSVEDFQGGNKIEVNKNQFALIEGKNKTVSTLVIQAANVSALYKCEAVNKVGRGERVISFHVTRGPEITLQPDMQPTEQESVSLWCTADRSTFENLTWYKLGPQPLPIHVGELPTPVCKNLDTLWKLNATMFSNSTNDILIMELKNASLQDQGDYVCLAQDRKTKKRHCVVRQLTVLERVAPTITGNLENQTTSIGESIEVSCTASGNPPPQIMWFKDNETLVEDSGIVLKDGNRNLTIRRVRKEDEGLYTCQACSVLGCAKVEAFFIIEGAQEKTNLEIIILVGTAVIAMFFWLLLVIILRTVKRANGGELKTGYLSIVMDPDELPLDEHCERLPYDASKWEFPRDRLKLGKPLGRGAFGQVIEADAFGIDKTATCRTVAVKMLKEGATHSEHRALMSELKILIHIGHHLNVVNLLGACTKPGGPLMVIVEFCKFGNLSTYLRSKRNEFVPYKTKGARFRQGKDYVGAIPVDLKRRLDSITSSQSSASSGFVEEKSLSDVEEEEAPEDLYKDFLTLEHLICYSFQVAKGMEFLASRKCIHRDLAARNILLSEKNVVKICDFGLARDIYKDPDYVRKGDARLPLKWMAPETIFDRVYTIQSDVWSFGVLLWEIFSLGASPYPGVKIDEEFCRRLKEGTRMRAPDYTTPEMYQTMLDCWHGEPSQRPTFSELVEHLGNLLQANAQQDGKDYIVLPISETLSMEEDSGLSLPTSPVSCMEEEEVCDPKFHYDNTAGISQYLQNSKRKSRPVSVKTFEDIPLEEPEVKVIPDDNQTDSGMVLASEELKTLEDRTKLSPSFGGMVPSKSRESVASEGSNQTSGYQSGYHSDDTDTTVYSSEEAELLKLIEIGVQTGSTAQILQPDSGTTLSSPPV
Outline: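 HUVEC, 24 h serum-free starvation; cpd 8-pt dilution, 0.3% DMSO final, 1 h; VEGF165 100 ng/mL, 5 min; cold lysis; phospho-KDR ELISA; IC50, 4PL.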

[5] = target: Human Axl (residues H473-A894 with Q764R) (Homo sapiens (Human), UniProt P30530, Q764R); test: Human AXL kinase assay (33P radiometric, KinaseProfiler); assay type: biochemical; conditions: 10 μM ATP
Sequence of Human Axl (residues H473-A894 with Q764R) (P30530 473-894 Q764R): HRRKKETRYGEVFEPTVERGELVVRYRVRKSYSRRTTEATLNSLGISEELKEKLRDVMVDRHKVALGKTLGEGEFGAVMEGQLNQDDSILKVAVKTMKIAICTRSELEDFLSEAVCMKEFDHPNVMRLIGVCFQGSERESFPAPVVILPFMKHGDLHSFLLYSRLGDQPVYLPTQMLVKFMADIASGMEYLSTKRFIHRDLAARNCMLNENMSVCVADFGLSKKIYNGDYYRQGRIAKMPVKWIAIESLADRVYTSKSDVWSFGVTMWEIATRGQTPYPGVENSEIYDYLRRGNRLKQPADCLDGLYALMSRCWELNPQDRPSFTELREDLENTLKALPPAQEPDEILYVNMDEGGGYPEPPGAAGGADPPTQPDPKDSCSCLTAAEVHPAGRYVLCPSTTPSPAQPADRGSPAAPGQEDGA
Method: (§1) Kinase activity and compound inhibition were investigated using the ^33P-Phosphoryl transfer radiometric kinase assay, performed using the KinaseProfiler™ service of Eurofins Pharma Discovery Services UK Limited. Dose-response experiments were performed using nine compound concentrations in a 96-well microtiter plate. For each assay, all compounds were prepared to a 50× final assay concentration (50 μM) in 100% DMSO, then diluted in a half-log series, with the final top concentration at 1 μM. This working stock of the compound was added to the assay well as the first component in the reaction, followed by the remaining components as detailed in the following assay protocols below. The positive control wells (100% kinase activity) contain all components of the reaction including 2% DMSO (control for solvent effects), except the compound of interest. Blank wells contain all components of the reaction, with the reference inhibitor, staurosporine. This reference compound was used to abolish kinase activity and generated the 0% kinase activity base-line. IC50 values were calculated by nonlinear regression analysis using the sigmoidal dose-response (variable slope) curve fit on XLFit version 5.3 (ID Business Solutions).
Human Axl (residues H473-A894 with Q764R, 161 nM) was incubated with 8 mM MOPS pH 7.0, 0.2 mM EDTA, 250 μM KKSRGDYMTMQIG (SEO ID NO. 43) 10 mM magnesium acetate and 10 μM [γ-33P-ATP]. The reaction was initiated by the addition of the Mg/ATP mix. After incubation for 40 minutes at room temperature, the reaction was stopped by the addition of phosphoric acid to a concentration of 0.5%. A reaction aliquot of 10 μL was then spotted onto a P30 filtermat and washed four times for 4 minutes in 0.425% phosphoric acid and once in methanol prior to drying and scintillation counting. Incorporated ^33P was measured using the Wallac Microbeta scintillation counter (Perkin Elmer).

[6] = target: Human Mer (residues R557-E882 with H628Q and R794A) (Homo sapiens (Human), UniProt Q12866); test: Human Mer kinase assay (33P radiometric, KinaseProfiler); assay type: biochemical; conditions: 10 μM ATP
Sequence of Human Mer (residues R557-E882 with H628Q and R794A) (Q12866 557-882, stated change not applied): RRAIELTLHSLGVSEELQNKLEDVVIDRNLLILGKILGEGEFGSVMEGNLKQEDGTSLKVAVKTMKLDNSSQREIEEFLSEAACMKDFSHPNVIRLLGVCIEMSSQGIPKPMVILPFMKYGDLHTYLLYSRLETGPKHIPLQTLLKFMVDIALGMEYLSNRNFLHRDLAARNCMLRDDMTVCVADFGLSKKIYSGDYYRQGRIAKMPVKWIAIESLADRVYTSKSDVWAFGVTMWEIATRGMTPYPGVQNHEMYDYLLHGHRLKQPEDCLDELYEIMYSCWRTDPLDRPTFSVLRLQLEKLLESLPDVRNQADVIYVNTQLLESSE
Method: as §1
Human Mer (residues R557-E882 with H628Q and R794A, 0.7 nM) was incubated with 8 mM MOPS pH 7.0, 0.2 mM EDTA, 30 mM NaCl, 250 μM GGMEDIYFEFMGGKKK (SEO ID NO. 44). 10 mM magnesium acetate, and 10 μM [γ-^33P-ATP]. The reaction was initiated by the addition of the Mg/ATP mix. After incubation for 40 minutes at room temperature, the reaction was stopped by the addition of phosphoric acid to a concentration of 0.5%. A reaction aliquot of 10 μL was then spotted onto a P30 filtermat and washed four times for 4 minutes in 0.425% phosphoric acid and once in methanol prior to drying and scintillation counting. Incorporated ^33P was measured using the Wallac Microbeta scintillation counter (Perkin Elmer).

[7] = target: Human Met (residues R974-S1390 with A1209G and V1290L) (Homo sapiens, UniProt P08581); test: Human Met kinase assay (33P radiometric, KinaseProfiler); assay type: biochemical; conditions: 10 μM ATP, read-out: c-Met IC50
Method: as §1
Human Met (residues R974-S1390 with A1209G and V1290L, 3.4 nM) was incubated with 8 mM MOPS pH 7.0, 0.2 mM EDTA, 250 μM KKKGQEEEYVFIE (SEO ID NO. 45), 1 mM sodium orthovanadate, 5 mM […], 10 mM magnesium acetate, and 10 μM [γ-33P-ATP]. The reaction was initiated by the addition of the Mg/ATP mix. After incubation for 40 minutes at room temperature, the reaction was stopped by the addition of phosphoric acid to a concentration of 0.5%. A reaction aliquot of […] was then spotted onto a P30 filtermat and washed four times for 4 minutes in 0.425% phosphoric acid and once in methanol prior to drying and scintillation counting. Incorporated 33P was measured using the Wallac Microbeta scintillation counter (Perkin Elmer).

Sequence of AXL (P30530 26-894): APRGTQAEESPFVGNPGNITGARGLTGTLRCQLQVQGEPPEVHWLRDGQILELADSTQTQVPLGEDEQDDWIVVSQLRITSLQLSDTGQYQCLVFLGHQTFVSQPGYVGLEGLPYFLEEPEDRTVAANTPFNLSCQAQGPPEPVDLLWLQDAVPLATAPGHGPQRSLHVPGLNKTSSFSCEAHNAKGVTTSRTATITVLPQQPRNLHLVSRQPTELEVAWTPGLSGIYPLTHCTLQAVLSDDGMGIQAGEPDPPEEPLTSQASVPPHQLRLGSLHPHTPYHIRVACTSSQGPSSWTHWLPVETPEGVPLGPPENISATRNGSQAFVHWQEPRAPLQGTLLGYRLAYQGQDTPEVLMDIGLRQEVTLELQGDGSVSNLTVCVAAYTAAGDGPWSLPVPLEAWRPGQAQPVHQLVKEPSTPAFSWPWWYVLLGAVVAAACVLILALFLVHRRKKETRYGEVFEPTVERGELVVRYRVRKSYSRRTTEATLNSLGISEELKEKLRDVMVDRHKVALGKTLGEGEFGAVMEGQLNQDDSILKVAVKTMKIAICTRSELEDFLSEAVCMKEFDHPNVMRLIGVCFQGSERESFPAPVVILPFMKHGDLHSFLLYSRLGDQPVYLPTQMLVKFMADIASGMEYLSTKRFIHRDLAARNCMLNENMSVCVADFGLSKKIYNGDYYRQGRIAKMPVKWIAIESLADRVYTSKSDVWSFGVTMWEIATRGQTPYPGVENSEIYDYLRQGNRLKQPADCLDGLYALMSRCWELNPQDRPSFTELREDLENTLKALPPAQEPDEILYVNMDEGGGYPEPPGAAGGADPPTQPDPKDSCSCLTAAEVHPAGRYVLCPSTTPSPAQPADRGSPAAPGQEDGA

IC50 [1]	IC50 [2]	IC50 [3]	IC50 [4]	IC50 [5]	IC50 [6]	IC50 [7]	Structure (SMILES)
100 to 300 nM	> 300 nM	100 to 300 nM	10 to 100 nM				COc1cc2nccc(Oc3ccc(NC(=O)C4(C(=O)Nc5ccc(F)cc5)CC4)cc3)c2cc1C(=O)NOCC(O)CO (single isomer, unassigned) [Compound 30, 1-N-[4-[6-(2,3-dihydroxypropoxycarbamoyl)-7-methoxyquinolin-4-yl]oxyphenyl]-1-N′-(4-fluorophenyl)cyclopropane-1,1-dicarboxamide]
10 to 100 nM	10 to 100 nM	10 to 100 nM	≤ 10 nM				COc1cc2nccc(Oc3ccc(NC(=O)C4(C(=O)Nc5ccc(F)cc5)CC4)cc3)c2cc1C(=O)NOC1COC1 [Compound 26, 1-N′-(4-fluorophenyl)-1-N-[4-[7-methoxy-6-(oxetan-3-yloxycarbamoyl)quinolin-4-yl]oxyphenyl]cyclopropane-1,1-dicarboxamide]
≤ 10 nM	≤ 10 nM	10 to 100 nM	≤ 10 nM				COc1cc2nccc(Oc3ccc(NC(=O)C4(C(=O)Nc5ccc(F)cc5)CC4)cc3)c2cc1C(=O)NN [Compound 32, 1-N′-(4-fluorophenyl)-1-N-[4-[6-(hydrazinecarbonyl)-7-methoxyquinolin-4-yl]oxyphenyl]cyclopropane-1,1-dicarboxamide]
				100 to 1000 nM	10 to 100 nM	10 to 100 nM	COc1cc2nccc(Oc3ccc(NC(=O)C4(C(=O)Nc5ccc(F)cc5)CC4)cc3)c2cc1-c1cccn1C(=O)OC(C)(C)C [Compound 181, tert-butyl 2-[4-[4-[[1-[(4-fluorophenyl)carbamoyl]cyclopropanecarbonyl]amino]phenoxy]-7-methoxyquinolin-6-yl]pyrrole-1-carboxylate]

Continued, molecule first:

Structure (SMILES)	IC50 [1]	IC50 [2]	IC50 [3]	IC50 [4]	IC50 [5]	IC50 [6]	IC50 [7]
COc1cc2nccc(Oc3ccc(NC(=O)C4(C(=O)Nc5ccc(F)cc5)CC4)cc3)c2cc1C(=O)NOCC(O)CO (single isomer, unassigned) [Compound 31, 1-N-[4-[6-(2,3-dihydroxypropoxycarbamoyl)-7-methoxyquinolin-4-yl]oxyphenyl]-1-N′-(4-fluorophenyl)cyclopropane-1,1-dicarboxamide]	10 to 100 nM	> 300 nM	100 to 300 nM	10 to 100 nM			
COc1cc2nccc(Oc3ccc(NC(=O)C4(C(=O)Nc5ccc(F)cc5)CC4)cc3)c2cc1C(=O)O [Compound 6, 4-[4-[[1-[(4-fluorophenyl)carbamoyl]-cyclopropanecarbonyl]amino]-phenoxy]-7-methoxyquinoline-6-carboxylic acid]			> 300 nM	> 300 nM	100 to 1000 nM	10 to 100 nM	≤ 10 nM
COc1cc2nccc(Oc3ccc(NC(=O)C4(C(=O)Nc5ccc(F)cc5)CC4)cc3)c2cc1C(=O)NO [Compound 20, 1-N′-(4-fluorophenyl)-1-N-[4-[6-(hydroxycarbamoyl)-7-methoxyquinolin-4-yl]oxyphenyl]cyclopropane-1,1-dicarboxamide]	10 to 100 nM	10 to 100 nM	10 to 100 nM	10 to 100 nM			
COc1cc2nccc(Oc3ccc(NC(=O)C4(C(=O)Nc5ccc(F)cc5)CC4)cc3)c2cc1C(=O)NOCCO [Compound 27, 1-N′-(4-fluorophenyl)-1-N-[4-[6-(2-hydroxyethoxycarbamoyl)-7-methoxyquinolin-4-yl]oxyphenyl]cyclopropane-1,1-dicarboxamide]	≤ 10 nM	10 to 100 nM	10 to 100 nM	≤ 10 nM			
COc1cc2nccc(Oc3ccc(NC(=O)C4(C(=O)Nc5ccc(F)cc5)CC4)cc3)c2cc1C(C)=O [Compound 34, 1-N-[4-(6-acetyl-7-methoxyquinolin-4-yl)oxyphenyl]-1-N′-(4-fluorophenyl)cyclopropane-1,1-dicarboxamide]	≤ 10 nM	≤ 10 nM	10 to 100 nM	≤ 10 nM			
O=C(Nc1ccc(F)cc1)C1(C(=O)Nc2ccc(Oc3ccnc4cc(OCCO)c(-c5ncco5)cc34)cc2)CC1 [Compound 50, 1-N′-(4-Fluorophenyl)-1-N-[4-[7-(2-hydroxyethoxy)-6-(1,3-oxazol-2-yl)quinolin-4-yl]oxyphenyl]cyclopropane-1,1-dicarboxamide]	≤ 10 nM	≤ 10 nM	≤ 10 nM	≤ 10 nM			
COc1cc2nccc(Oc3ccc(NC(=O)C4(C(=O)Nc5ccc(F)cc5)CC4)cc3)c2cc1P(C)(C)=O [Compound 51, 1-N-[4-(6-Dimethylphosphoryl-7-methoxyquinolin-4-yl)oxyphenyl]-1-N′-(4-fluorophenyl)cyclopropane-1,1-dicarboxamide]	10 to 100 nM	100 to 300 nM	10 to 100 nM	100 to 300 nM			
COc1cc2c(Oc3ccc(NC(=O)C4(C(=O)Nc5ccc(F)cc5)CC4)cc3)ccnc2cc1C(=O)O [Compound 151, 4-[4-[[1-[(4-fluorophenyl)carbamoyl]cyclopropanecarbonyl]amino]phenoxy]-6-methoxyquinoline-7-carboxylic acid]				> 300 nM	100 to 1000 nM	10 to 100 nM	10 to 100 nM
